The compounds below were run against T1, Recombinant human liver GK1 (GST-GK) (Homo sapiens, UniProt P35557) (assay: In vitro glucokinase activity (G6PDH-coupled NADH assay)). Conditions: 30° C., 5 mM D-glucose, 10% DMSO.
T1 construct: made in house; host or cells: E. coli
T1 sequence (P35557 1-466 isoform P35557-2): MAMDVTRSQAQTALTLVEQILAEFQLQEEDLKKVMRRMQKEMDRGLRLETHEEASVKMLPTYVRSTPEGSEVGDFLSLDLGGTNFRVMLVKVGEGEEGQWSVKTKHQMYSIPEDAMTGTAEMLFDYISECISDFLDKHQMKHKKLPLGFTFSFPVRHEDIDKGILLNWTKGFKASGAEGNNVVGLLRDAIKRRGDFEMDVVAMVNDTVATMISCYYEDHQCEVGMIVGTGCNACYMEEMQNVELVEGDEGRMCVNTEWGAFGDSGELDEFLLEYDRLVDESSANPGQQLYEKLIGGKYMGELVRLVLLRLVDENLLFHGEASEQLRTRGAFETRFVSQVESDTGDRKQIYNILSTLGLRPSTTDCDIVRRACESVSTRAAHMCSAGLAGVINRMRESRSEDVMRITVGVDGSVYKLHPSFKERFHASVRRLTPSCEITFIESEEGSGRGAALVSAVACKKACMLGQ
Type: biochemical
Protocol: Glucokinase In Vitro Assay Protocol: Glucokinase (GK) was assayed by coupling the production of glucose-6-phosphate to the generation of NADH with glucose-6-phosphate dehydrogenase (G6PDH, 0.75-1 kunits/mg; Boehringer Mannheim, Indianapolis, Ind.) from Leuconostoc mesenteroides as the coupling enzyme (Scheme 2).
Recombinant human liver GK1 was expressed in E. coli as a glutathione S-transferase fusion protein (GST-GK) [Liang et al, 1995] and was purified by chromatography over a glutathione-Sepharose 4B affinity column using the procedure provided by the manufacturer (Amersham Pharmacia Biotech, Piscataway, N.J.).
The assay was conducted at 30° C. in a flat bottom 96-well tissue culture plate from Costar (Cambridge, Mass.) with a final incubation volume of 120 μL. The incubation reaction contained the following: 25 mM Hepes buffer (pH 7.1), 25 mM KCl, 5 mM D-glucose, 1 mM ATP, 1.8 mM NAD, 2 mM MgCl2, 1 μM sorbitol-6-phosphate, 1 mM dithiothreitol, test drug or 10% dimethylsulfoxide, ˜7 units/ml G6PDH, and GK (see below). All organic reagents were >98% pure and were from Boehringer Mannheim with the exceptions of D-glucose and Hepes which were from Sigma Chemical Co, St Louis, Mo. Test compounds were dissolved in dimethylsulfoxide and were added to the incubation reaction minus GST-GK in a volume of 12 μL to yield a final dimethylsulfoxide concentration of 10%. This mix was pre-incubated in the temperature controlled chamber of a SPECTRAmax 250 microplate spectrophotometer (Molecular Devices Corporation, Sunnyvale, Calif.) for 10 min to allow temperature equilibrium and then the reaction was started by the addition of 20 μL GST-GK.
After addition of enzyme, the increase in optical density (OD) at 340 nm was monitored spectrophotometrically to determine the rate of change (OD340 per min). The GK activity (OD340/min) in control wells (10% DMSO minus GK activators) was compared with the activity in wells containing test GK activators, and the concentration of activator that produced a 50% increase in the activity of GK, i.e., the SC1.5, was calculated. The table below provides the in vitro glucokinase activity for the compounds in the Examples: […]

Row | SMILES | SC1.5 (concentration of activator that produced a 50% increase in the activity of GK) [µM]
1 | COCCn1ccc(NC(=O)[C@H](CC2CCCCC2)N2CC(Oc3ccccc3C(F)(F)F)=CC2=O)n1.Cl [Example 91, (S)-3-Cyclohexyl-N-[1-(2-methoxy-ethyl)-1H-pyrazol-3-yl]-2-[2-oxo-4-(2-trifluoromethyl-phenoxy)-2,5-dihydro-pyrrol-1-yl]-propionamide Hydrochloride] | 0.039
2 | Cc1ccccc1OC1=CC(=O)N([C@@H](CC(C)C)C(=O)Nc2ccn(C[C@@H](O)CO)n2)C1 [Example 124, (S)-4-Methyl-2-(2-oxo-4-o-tolyloxy-2,5-dihydro-pyrrol-1-yl)-pentanoic acid [1-((R)-2,3-dihydroxy-propyl)-1H-pyrazol-3-yl]-amide] | 0.336
3 | Cc1ccccc1OC1=CC(=O)N([C@@H](CC(C)C)C(=O)Nc2ccn(CC(C)(C)O)n2)C1 [Example 125, (S)-4-Methyl-2-(2-oxo-4-o-tolyloxy-2,5-dihydro-pyrrol-1-yl)-pentanoic acid [1-(2-hydroxy-2-methyl-propyl)-1H-pyrazol-3-yl]-amide] | 0.252
4 | COC(=O)c1ccc(NC(=O)C(CC2CCOCC2)N2CC(Oc3c(F)cccc3F)=CC2=O)nc1 (stereo not shown) [Example 40, 6-[2-[4-(2,6-difluoro-phenoxy)-2-oxo-2,5-dihydro-pyrrol-1-yl]-3-(tetrahydro-pyran-4-yl)-propionylamino]-nicotinic acid methyl ester] | 0.19
5 | CNC(=O)NC(=O)C(CC1CCCCC1)N1CC(Oc2cccc(OC)c2Cl)=CC1=O (stereo not shown) [Example 58, 1-{2-[4-(2-Chloro-3-methoxy-phenoxy)-2-oxo-2,5-dihydro-pyrrol-1-yl]-3-cyclohexyl-propionyl}-3-methyl-urea] | 1.597
6 | Cc1cccc(OC2=CC(=O)N([C@@H](CC(C)C)C(=O)Nc3ccn(C[C@@H]4COC(C)(C)O4)n3)C2)c1F [Example 130, (S)-2-[4-(2-Fluoro-3-methyl-phenoxy)-2-oxo-2,5-dihydro-pyrrol-1-yl]-4-methyl-pentanoic acid [1-((R)-2,2-dimethyl-[1,3]dioxolan-4-yl-methyl)-1H-pyrazol-3-yl]-amide] | 0.26
7 | CCOc1ccc(F)c(OC2=CC(=O)N([C@H](CC3CCOCC3)C(=O)Nc3ccn(CC(C)(C)O)n3)C2)c1F (single isomer, unassigned) [Example 258] | 4.435
8 | CC(C)C[C@@H](C(=O)Nc1cnccn1)N1CC(Oc2ccc(CC(C)(C)O)cc2)=CC1=O [Example 245, (S)-2-{4-[4-(2-Hydroxy-2-methyl-propyl)-phenoxy]-2-oxo-2,5-dihydro-pyrrol-1-yl}-4-methyl-pentanoic acid pyrazin-2-ylamide] | 3.668
9 | COc1cccc(OC2=CC(=O)N(C(CC3CCOCC3)C(=O)Nc3ccn(CC(C)(C)O)n3)C2)c1Cl (stereo not shown) [Example 50, 2-[4-(2-Chloro-3-methoxy-phenoxy)-2-oxo-2,5-dihydro-pyrrol-1-yl]-N-[1-(2-hydroxy-2-methyl-propyl)-1H-pyrazol-3-yl]-3-(tetrahydro-pyran-4-yl)-propionamide] | 0.033
10 | C=Cc1cccc(OC2=CC(=O)N([C@@H](CC(C)C)C(=O)Nc3ccn(C[C@@H](O)CO)n3)C2)c1F [Example 145, (S)-2-[4-(2-Fluoro-3-vinyl-phenoxy)-2-oxo-2,5-dihydro-pyrrol-1-yl]-4-methyl-pentanoic acid [1-((R)-2,3-dihydroxy-propyl)-1H-pyrazol-3-yl]-amide] | 0.134
11 | O=C(Nc1ccn(C[C@@H](O)CO)n1)C(CC(F)F)N1CC(Oc2ccccc2Cl)=CC1=O (stereo partly drawn) [Example 221, 2-[4-(2-Chloro-phenoxy)-2-oxo-2,5-dihydro-pyrrol-1-yl]-N-[1-((R)-2,3-dihydroxy-propyl)-1H-pyrazol-3-yl]-4,4-difluoro-butyramide] | 17.303
12 | COC(=O)c1ccc(NC(=O)[C@H](CC2CCCCC2)N2CC(Oc3c(F)cccc3F)=CC2=O)nc1 [Example 39, 6-{(S)-3-Cyclohexyl-2-[4-(2,6-difluoro-phenoxy)-2-oxo-2,5-dihydro-pyrrol-1-yl]-propionylamino}-nicotinic acid methyl ester] | 0.025
13 | CCO[C@H](C)C[C@@H](C(=O)Nc1ccn(CC(C)(C)O)n1)N1CC(Oc2cccc(Cl)c2Cl)=CC1=O [Example 94, (2S,4R)-2-[4-(2,3-Dichloro-phenoxy)-2-oxo-2,5-dihydro-pyrrol-1-yl]-4-ethoxy-pentanoic acid [1-(2-hydroxy-2-methyl-propyl)-1H-pyrazol-3-yl]-amide] | 0.772
14 | CC(C)(O)Cn1ccc(NC(=O)C(CC2CC3CCC2C3)N2CC(Oc3c(F)cccc3F)=CC2=O)n1 (stereo not shown) [Example 228, 3-Bicyclo[2.2.1]hept-2-yl-2-[4-(2,6-difluoro-phenoxy)-2-oxo-2,5-dihydro-pyrrol-1-yl]-N-[1-(2-hydroxy-2-methyl-propyl)-1H-pyrazol-3-yl]-propionamide] | 0.365
15 | COc1cccc(OC2=CC(=O)N([C@@H](CC3CCCCC3)C(=O)Nc3ccn(CC(C)(C)O)n3)C2)c1 [Example 208, (S)-3-cyclohexyl-N-[1-(2-hydroxy-2-methyl-propyl)-1H-pyrazol-3-yl]-2-[4-(3-methoxy-phenoxy)-2-oxo-2,5-dihydro-pyrrol-1-yl]-propionamide] | 0.012
16 | CC[C@H](C)CC(C(=O)Nc1ccn(C[C@@H](O)CO)n1)N1CC(Oc2ccccc2Cl)=CC1=O (mixture of isomers) [Example 249, (S)-2-[4-(2-Chloro-phenoxy)-2-oxo-2,5-dihydro-pyrrol-1-yl]-4-methyl-hexanoic acid [1-((R)-2,3-dihydroxy-propyl)-1H-pyrazol-3-yl]-amide] | 0.125
17 | COc1cccc(OC2=CC(=O)N(C(CC3CCOCC3)C(=O)Nc3ccn(C[C@@H](O)CO)n3)C2)c1Cl (stereo partly drawn) [Example 53, 2-[4-(2-Chloro-3-methoxy-phenoxy)-2-oxo-2,5-dihydro-pyrrol-1-yl]-N-[1-((R)-2,3-dihydroxy-propyl)-1H-pyrazol-3-yl]-3-(tetrahydro-pyran-4-yl)-propionamide] | 0.053
18 | O=C(Nc1ccn(C[C@@H](O)CO)n1)[C@H](Cc1ccc(F)cc1)N1CC(Oc2ccccc2Cl)=CC1=O [Example 187, (S)-2-[4-(2-chloro-phenoxy)-2-oxo-2,5-dihydro-pyrrol-1-yl]-N-[1-((R)-2,3-dihydroxy-propyl)-1H-pyrazol-3-yl]-3-(4-fluorophenyl)-propionamide] | 0.771
19 | CC(C)C[C@@H](C(=O)Nc1ccn(C[C@@H](O)C[C@@H](O)CC(=O)OC(C)(C)C)n1)N1CC(Oc2ccccc2Cl)=CC1=O [Example 193, (3R,5S)-6-(3-{(S)-2-[4-(2-chloro-phenoxy)-2-oxo-2,5-dihydro-pyrrol-1-yl]-4-methyl-pentanoylamino}-pyrazol-1-yl)-3,5-dihydroxy-hexanoic acid t-butyl ester] | 0.307

Source: US7741327B2 (Hoffmann-La Roche Inc., priority 2008, dated 2010)
